Data on ten compounds can be found in article PMC9381536, “Non-apoptotic cell death induction via sapogenin based supramolecular particles” (Scientific Reports, 2022).

The subject of one series is A549. Put plainly: Cytotoxicity analysis (WST-1). Conditions: Homo sapiens, A549, 48 h. The series is classed as cell-based. On the procedure:
(§1) HCC1937 (Human breast cancer line), HeLa (Human […]), A549 (Human lung adenocarcinoma), MRC-5 (Human lung fibroblasts), MCF7 (Human breast cancer cells), A549 (human lung carcinoma) were obtained from American Type Culture Collection and maintained as exponentially growing monolayers by culturing according to the supplier’s instructions. MCF7, HeLa, MRC-5, and A549 cell lines were cultured and routinely passaged in DMEM media containing 10% FBS, while HCC1937 cell lines were propagated in RPMI 1640 containing 10% FBS.
(§2) Following the treatment with compounds or vehicle for 48 h, the 10% WST-1 (Roche, Switzerland) in medium was replaced in each 96 well. After 4 h incubation with WST-1 reagent at 37 °C and 5% CO2, the absorbance was measured using a microplate reader at 440 nm (Varioscan, Thermo Fisher Scientific, US). Graph Pad Prism 5 (San Diego, CA, US.) was used to calculate the IC50, which represents the concentration of compounds that is required for 50% inhibition in comparison to the vehicle-treated controls. The experiments were repeated three times independently.

The test system of series [1] is HCC1937. Put plainly: Cytotoxicity analysis (WST-1). The series is classed as cell-based. Conditions: Homo sapiens, HCC1937, 48 h. On the procedure:
as §1, §2
(In general: Tetrazolium dyes change colour on reduction, which living cells bring about.)

A further series relates to HeLa. Kind of series: Cytotoxicity analysis (WST-1). It counts as cell-based. Particulars: Homo sapiens, 48 h. On the procedure:
as §1, §2

For the next series, the system named is MCF7. Put plainly: Cytotoxicity analysis (WST-1). It counts as cell-based. Conditions: Homo sapiens, MCF7, 48 h. On the procedure:
as §1, §2

The next series deals with MRC-5. Kind of series: Cytotoxicity analysis (WST-1). The series is classed as cell-based. Conditions: Homo sapiens, MRC5, MRC-5 normal cell line, 48 h. The procedure:
as §1, §2

The nature of series [2]: Nile red staining (particle formation). It counts as physicochemical. Conditions: even at 30 µM. The procedure: AG-08 and AG were dissolved in DMSO as a 1000-fold concentrated stock added into the filtered PBS, which contain 2.5 µM Nile red. After 3 h incubation at room temperature, the fluorescence intensity was measured with a microplate reader (550 nm for excitation and 635 nm for the emission wavelength) (Varioscan, Thermo Fisher Scientific, US).

Series [3] concerns HeLa, HCC1937, MCF7, A549 and MRC-5. Put plainly: cells. It counts as cell-based, Human. Conditions: for IC50: Homo sapiens, range over HeLa, HCC1937, MCF7, A549, MRC-5, read-out: IC50 across the five cell lines.
Source text: We next aimed to further characterize the relation between the chemical structure of AG-08 and its capacity of supramolecular assembly formation together with its biological activities by preparing further derivatives. In this regard, 18 analogs (Fig. 4) were synthesized from 20(27)-octanor-cycloastragenol (SCG), cycloastragenol (CG), and astragenol (AG) by the methods shown in the method section. The details and characterization of which are shown in Supplementary Information. The cytotoxic activities of the semi-synthetic analogs were evaluated against four human cancer cell lines, namely HeLa, HCC1937, MCF7, and A549 as well as against MRC-5 as a normal cell line.
as §1, §2

In series [4] the test system is HCC1937 cells. Put plainly: Cytotoxicity of 220 nm filtrates. The series is classed as cell-based. Particulars: inferred from filtration and Tween-20 tests. On the procedure: Figure 1 AG-08 mediated cytotoxicity relies on the supramolecular structures. (A) Structure of AG-08. (B) The scanning transmission electron micrograph of 16 µM AG-08 in PBS. Figure is a representative image of stained sample with uranyl acetate (5683 × magnification; scale bar 600 nm). (C) After 3 h incubation of Nile red solution with AG-08 or AG, fluorescence intensity of Nile red was measured. (D) AG-08, Staurosporine (Sta) or vehicle samples prepared in the cell condition medium was filtrated by 220 nm filter and HCC1937 cells were exposed to the filtrates. After 24 h, the viability of cells was measured and represented as a percentage of that of the vehicle control. The error bars represent mean value ± s.d. (n = 3). *p < 0.05, **p < 0.005, ***p < 0.001. (E) Tween 20 (1:40,000) was added to the fresh medium before addition of 8 μM AG-08 or vehicle. Then cell medium was replaced with this fresh medium. Cell viability was detected after 24 h incubation. […] TEXT PRINTED IN THE PICTURE: (F) no label printed: Diameter: 153.2±4.6; polydispersity index: 0.218
To verify that the activity of AG-08 arises from its supramolecular structures, freshly prepared AG-08 solutions were filtered using 220 nm-filters to remove AG-08 supramolecular particles from medium, and the filtrates were analyzed for their cytotoxicity. […] Next, Tween-20 was utilized as a non-ionic detergent to block particle formation, and AG-08-mediated cell death was inhibited as expected (Fig. 1E). […]

The test system of series [5] is HCC1937. Kind of series: LDH (lactate dehydrogenase) releasing assay. The series is classed as cell-based, Human. Conditions: LDH release and immunoblotting. The procedure:
Figure 5 The cytotoxic activity of analogs depends on particle formation like AG-08. […] The level of released LDH was calculated as fold change relative to vehicle. […] After 24 h, cell viability was measured. […] Cell viability after 24 h was measured. The reported values correspond to mean values ± standard deviation (± s.d) of three experiments. ***p < 0.001, ****p < 0.0001.
LDH-Cytotoxicity Colorimetric Assay Kit II (Biovision) was used to detect LDH releasing. Briefly, HCC1937 were seeded on 96 well plate. After treatment with compounds, cells were centrifuged at 600×g for 10 min. 10 µl supernatant were transferred into clean 96 well plate and added into 100 µl LDH Reaction Mix. Following 30 min incubation at room temperature, 10 µl stop solution were added, and absorbance was measured at 450 nm (Varioscan, Thermo Fisher Scientific, US).
Background: Release of lactate dehydrogenase indicates damage to the cell membrane.

For series [6] the following is noted: fibrils inducing apoptosis; cited from earlier work.
The test system of series [7] is HCC1937 cells. Kind of series: Endocytosis/vesicular trafficking inhibitors against AG-08-mediated cell death. It counts as cell-based, Human. Conditions: 1 h pre-treatment, then 8 µM AG-08 24 h, HCC1937, WST-1. The procedure:
Figure 2 AG-08 is related with endosomal pathway. (A) After pre-treatment with 20 µM pitstop II, 0.5 mM methyl-β-cyclodextrin (MβC), 80 µM dynasore, 20 µM cytochalasin d (Cyto D) or 20 µM chlorpromazine (CPZ) for 1 h, HCC1937 cells were treated with 8 µM AG-08 for 24 h. Then cell viability was determined by using WST-1. Reported values were normalized on cells treated with only AG-08. Error bars are the standard deviations (n = 3). p-values were calculated with respect to AG-08 treated cells by two-tailed equal variance Student’s t-test (*p < 0.05, ***p < 0.001, ****p < 0.0001) (B) HCC1937 cells were treated with brefeldin A (Bref A) for 1 h and then treated with 8 µM AG-08 for 24 h. Error bars represent standard deviations (n = 3). p-values were calculated with respect to AG-08-treated cells (*p < 0.05, **p < 0.005, ***p < 0.001). (C) Following AG-08 treatment for 16 h, EEA1 proteins were stained using the anti-EEA1 antibody in HCC1937 cells (scale bar = 25 µm).
Pitstop II (Sigma; SML1169), methyl β cyclodextrin (Cayman; 21,633), chlorpromazine (Cayman; 16,129), dynasore (Cayman, 14,062) and cytochalasin D (Cayman; 11,330) were used as endocytosis inhibitors.

“Also recorded” adds a separate entry of the source. Where only a bound is given, the exact number is not on record here.

What is called IC50 is the midpoint of a concentration-inhibition curve. For `CC(C)(O)C1CCC(C)(C2C(O)CC3(C)C4CC(O)C5C(C)(CCC(O)C5(C)C)C4=CCC23C)O1` (centres unmarked) [AG, astragenol, reference compound], the IC50 in the series on A549, in the series with HCC1937 [1], in the series with HeLa, with MCF7 and in the series on MRC-5 was more than 30 µM each time. Besides, the “Nile red fluorescence intensity (particle formation)” value in series [2] was “no fluorescence intensity”.

With `Cc1ccc(S(=O)(=O)OC2CCC3(C)C4=CCC5(C)C(C6(C)CCC(C(C)(C)O)O6)C(O)CC5(C)C4CC(=O)C3C2(C)C)cc1` (centres unmarked) [AG-05], the IC50 was 2.02 µM with A549; 4.28 µM with HCC1937 [1]; 5.9 µM with HeLa; 2.55 µM in the series on MCF7; 1.55 µM with MRC-5; 1.55 to 5.9 µM in [3]. The “cytotoxic activity (structure-activity statement)” value (from here on “cytotoxic activity”) in series [3] is on record as “higher activity”. In the series on HCC1937 cells [4], the “formation of supramolecular assemblies/particles” value is reported as “form supramolecular assemblies; also recorded: formed supramolecular particles”. In addition, the “mode of cell death” value with HCC1937 [5] is “induced necrotic cell death”.

For the compound `CC(=O)Nc1ccc(S(=O)(=O)OC2CCC3(C)C4=CCC5(C)C(C6(C)CCC(C(C)(C)O)O6)C(O)CC5(C)C4C=CC3C2(C)C)cc1` (centres unmarked) [AG-06], the IC50 in the series with A549 was 5.7 µM; in the series with HCC1937 [1], 10 µM; with HeLa, 10.8 µM; in the series with MCF7 it was 9.34 µM; in the series on MRC-5, 19.1 µM; in series [3] it was 5.7 to 19.1 µM. Further, the “cytotoxic activity” value in series [3] is “decrease in activity”. Also, the “formation of supramolecular assemblies/particles” value in the series on HCC1937 cells [4] is “formed supramolecular particles”. In addition, the “mode of cell death” value with HCC1937 [5] was “induced necrotic cell death”.

With `Cc1ccc(S(=O)(=O)OC2CCC34CC35CCC3(C)C(C6(C)CCC(C(C)(C)O)O6)C(O)CC3(C)C5C=CC4C2(C)C)cc1` (centres unmarked) [CG-03], the IC50 in the series on A549 was 3.65 µM; with HCC1937 [1], 6.13 µM; in the series with HeLa, 12.9 µM; with MCF7, 5.5 µM; with MRC-5, 5.29 µM; in series [3] it was 3.65 to 12.9 µM. Also, in the series on HCC1937 cells [4], the “formation of supramolecular assemblies/particles” value is reported as “form supramolecular assemblies; also recorded: formed supramolecular particles”. Moreover, the “mode of cell death” value with HCC1937 [5] was “induced necrotic cell death”.

On to `Cc1ccc(S(=O)(=O)OC2CCC34CC35CCC3(C)C(C6(C)CCC(C(C)(C)O)O6)C(O)CC3(C)C5CC(=O)C4C2(C)C)cc1` (centres unmarked) [CG-05], for which the IC50 was 1.85 µM with A549; 2.66 µM in the series with HCC1937 [1]; 6.1 µM with HeLa; 3.85 µM with MCF7; 2.58 µM with MRC-5; 1.85 to 6.1 µM in [3]. In series [3], the “cytotoxic activity” value is listed as “higher activity”. Besides, the “formation of supramolecular assemblies/particles” value in the series with HCC1937 cells [4] is recorded as “form supramolecular assemblies; also recorded: formed supramolecular particles”. The “mode of cell death” value in the series with HCC1937 [5] was “induced necrotic cell death”.

As to `CC(=O)Nc1ccc(S(=O)(=O)OC2CCC34CC35CCC3(C)C(C6(C)CCC(C(C)(C)O)O6)C(O)CC3(C)C5C=CC4C2(C)C)cc1` (centres unmarked) [CG-06], the IC50 in the series with A549 is more than 50 µM; in the series with HCC1937 [1] it was 38.1 µM; in the series on HeLa, more than 50 µM; with MCF7, 41.3 µM; in the series with MRC-5, more than 50 µM. Moreover, in [3], the “cytotoxic activity” value is “complete activity loss”. Also, the “formation of supramolecular assemblies/particles” value in the series on HCC1937 cells [4] is on record as “form supramolecular assemblies”. Further, the “mode of cell death” value in the series with HCC1937 [5] is listed as “induced necrotic cell death”.

Regarding `C=C(C)[C@@H]1CC[C@]2(C(=O)O)CC[C@]3(C)[C@H](CC[C@@H]4[C@@]5(C)CC[C@H](O)C(C)(C)[C@@H]5CC[C@]43C)[C@@H]12` [betulinic acid], the “concentration at which fibrils form” value in series [6] was more than 50000 µM.

Take `O=C(N/N=C/c1ccc(O)c(O)c1)c1cc2ccccc2cc1O` [dynasore]: in the series with HCC1937 cells [7], the “protection of cells against AG-08-mediated cell death” value (“protection of cells” for short) is given as “failed to rescue cells”.

Regarding `O=C1N=C(NS(=O)(=O)c2cccc3ccccc23)SC1=Cc1ccc(Br)cc1` [pitstop II], in the series with HCC1937 cells [7], the “protection of cells” value is “effectively protected cells”.

In the case of methyl β-cyclodextrin, the “protection of cells” value with HCC1937 cells [7] is listed as “effectively protected cells”.
